Assay results reported in patent US7579469B2, “Glucocorticoid mimetics, methods of making them, pharmaceutical compositions, and uses thereof” (Boehringer Ingelheim Pharmaceuticals, Inc., priority 2003, dated 2009).

biological target: T1, human glucocorticoid receptor (GR) complex (Homo sapiens, UniProt P04150); assay: Glucocorticoid receptor competitive binding assay (fluorescence polarization); conditions: competition with TAMRA-labeled dexamethasone
T1 construct: made in house; host or cells: insect expression system (baculovirus lysate)
T1 sequence (P04150 1-777): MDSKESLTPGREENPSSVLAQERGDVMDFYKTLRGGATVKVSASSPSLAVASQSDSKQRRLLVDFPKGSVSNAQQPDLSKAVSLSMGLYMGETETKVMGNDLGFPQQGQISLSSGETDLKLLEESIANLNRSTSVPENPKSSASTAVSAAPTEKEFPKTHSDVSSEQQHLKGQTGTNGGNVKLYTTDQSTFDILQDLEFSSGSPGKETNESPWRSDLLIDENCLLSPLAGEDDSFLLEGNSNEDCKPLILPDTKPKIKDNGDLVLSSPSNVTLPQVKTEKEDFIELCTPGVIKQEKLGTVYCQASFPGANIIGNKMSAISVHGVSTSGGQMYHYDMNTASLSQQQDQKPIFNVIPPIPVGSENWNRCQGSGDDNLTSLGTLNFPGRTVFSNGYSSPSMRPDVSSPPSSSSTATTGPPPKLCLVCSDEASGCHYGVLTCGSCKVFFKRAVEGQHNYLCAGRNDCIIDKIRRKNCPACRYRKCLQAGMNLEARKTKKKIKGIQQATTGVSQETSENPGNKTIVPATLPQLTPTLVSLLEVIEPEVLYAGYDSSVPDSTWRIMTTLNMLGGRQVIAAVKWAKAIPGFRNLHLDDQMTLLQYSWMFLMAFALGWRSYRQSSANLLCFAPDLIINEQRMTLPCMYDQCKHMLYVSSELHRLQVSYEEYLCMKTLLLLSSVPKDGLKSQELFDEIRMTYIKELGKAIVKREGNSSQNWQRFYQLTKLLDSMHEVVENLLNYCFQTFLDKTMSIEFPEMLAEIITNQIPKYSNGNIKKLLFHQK
Procedure: Compounds of the invention were evaluated for binding to the steroid receptor by a fluorescence polarization competitive binding assay.
A. Glucocorticoid Receptor Competitive Binding Assay
Step 1. Characterization of the Fluorescent Probe
The wavelengths for maximum excitation and emission of the fluorescent probe should first be measured. An example of such a probe is rhodamine (TAMRA)-labeled dexamethasone.
The affinity of the probe for the steroid receptor was then determined in a titration experiment. The fluorescence polarization value of the probe in assay buffer was measured on an SLM-8100 fluorometer using the excitation and emission maximum values described above. Aliquots of expression vector lysate were added and fluorescence polarization was measured after each addition until no further change in polarization value was observed. Non-linear least squares regression analysis was used to calculate the dissociation constant of the probe from the polarization values obtained for lysate binding to the probe.
Step 2. Screening for Inhibitors of Probe Binding
This assay uses fluorescence polarization (FP) to quantitate the ability of test compounds to compete with tetramethyl rhodamine (TAMRA)-labeled dexamethasone for binding to a human glucocorticoid receptor (GR) complex prepared from an insect expression system. The assay buffer was: 10 mM TES, 50 mM KCl, 20 mM Na2MoO4.2H20, 1.5 mM EDTA, 0.04% w/v CHAPS, 10% v/v glycerol, 1 mM dithiothreitol, pH 7.4. Test compounds were dissolved to 1 mM in neat DMSO and then further diluted to 10× assay concentration in assay buffer supplemented with 10% v/v DMSO. Test compounds were serially diluted at 10× assay concentrations in 10% DMSO-containing buffer in 96-well polypropylene plates. Binding reaction mixtures were prepared in 96-well black Dynex microtiter plates by sequential addition of the following assay components to each well: 15 μL of 10× test compound solution, 85 μL of GR-containing baculovirus lysate diluted 1:170 in assay buffer, and 50 μL of 15 nM TAMRA-labeled dexamethasone. Positive controls were reaction mixtures containing no test compound; negative controls (blanks) were reaction mixtures containing 0.7 μM to 2 μM dexamethasone. […] IC50 values were determined by iterative non-linear curve fitting of the FP signal data to a 4-parameter logistic equation.

Compound | activity in the GR binding assay
CC(C)(CC(O)(Cn1ccc(=O)c2ccccc21)C(F)(F)F)c1cc(F)ccc1OC(F)F (stereo not drawn) | potent activity
COc1ccc(F)cc1C(C)(C)CC(O)(Cn1ccc(=O)c2ccccc21)C1CC1 (stereo not drawn) | potent activity
COc1ccc(F)cc1C(C)(C)CC(O)(Cn1ccc(=O)c2ccccc21)C(F)F (stereo not drawn) | potent activity
CC(C)(CC(O)(Cn1ccc(=O)c2ccccc21)C(F)(F)F)c1cc(-c2cncnc2)ccc1O (stereo not drawn) | potent activity
COc1c(C)cc(C)cc1C(C)(C)CC(O)(Cn1ccc(=O)c2ccccc21)C(F)(F)F (stereo not drawn) | potent activity
COc1ccc(-c2cncnc2)cc1C(C)(C)CC(O)(Cn1ccc(=O)c2ccccc21)C(F)(F)F (stereo not drawn) | potent activity
COc1ccc(-c2cccnc2)cc1C(C)(C)CC(O)(Cn1ccc(=O)c2ccccc21)C(F)(F)F (stereo not drawn) | potent activity
COc1ccc(-c2ccsc2)cc1C(C)(C)CC(O)(Cn1ccc(=O)c2ccccc21)C(F)(F)F (stereo not drawn) | potent activity
CC(C)(CC(O)(Cn1ccc(=O)c2ccccc21)C(F)(F)F)c1cccc(CO)c1 (stereo not drawn) | potent activity
CC(C)Oc1cccc(C(C)(C)CC(O)(Cn2ccc(=O)c3ccccc32)C(F)(F)F)c1 (stereo not drawn) | potent activity
CC(C)(CC(O)(Cn1ccc(=O)c2ccccc21)C(F)(F)F)c1cccc(CN2CCOCC2)c1 (stereo not drawn) | potent activity
CC(C)(CC(O)(Cn1ccc(=O)c2ccccc21)C(F)(F)F)c1cccc(-c2cccnc2)c1 (stereo not drawn) | potent activity
CC(C)(CC(O)(Cn1ccc(=O)c2ccccc21)C(F)(F)F)c1cccc2c1OCO2 (stereo not drawn) | potent activity
CC(C)(CC(O)(Cn1ccc(=O)c2ccccc21)C(F)(F)F)c1cc(F)ccc1OCc1ccccc1 (stereo not drawn) | potent activity
CC(C)(CC(O)(Cn1ccc(=O)c2ncccc21)C(F)(F)F)c1cccc2c1OCC2 (stereo not drawn) | potent activity
Cc1ccc(C(C)(C)CC(O)(Cn2ccc(=O)c3ccccc32)C(F)(F)F)c(C)c1 (stereo not drawn) | potent activity
Cc1ccc(C)c(C(C)(C)CC(O)(Cn2ccc(=O)c3ccccc32)C(F)(F)F)c1 (stereo not drawn) | potent activity
CC(C)(CC(O)(Cn1ccc(=O)c2ccccc21)C(F)(F)F)c1cccc(C(=O)C2CC2)c1 (stereo not drawn) | potent activity
CCOc1cccc(C(C)(C)CC(O)(Cn2ccc(=O)c3ccccc32)C(F)(F)F)c1 (stereo not drawn) | potent activity
CC(C)(CC(O)(Cn1ccc(=O)c2ccccc21)C(F)(F)F)c1ccc(F)c(C2OCCCO2)c1 (stereo not drawn) | potent activity
Cc1ccc(C(C)(C)CC(O)(Cn2ccc(=O)c3ccccc32)C(F)(F)F)cc1C (stereo not drawn) | potent activity
CC(C)(CC(O)(Cn1ccc(=O)c2ccccc21)C(F)(F)F)c1cc(F)cc(F)c1 (stereo not drawn) | potent activity
Cc1cc(C)cc(C(C)(C)CC(O)(Cn2ccc(=O)c3ccccc32)C(F)(F)F)c1 (stereo not drawn) | potent activity

Compound | activity in the GR binding assay
COc1cc(F)ccc1C(C)(C)CC(O)(Cn1ccc(=O)c2ccccc21)C(F)(F)F (stereo not drawn) | potent activity
Cc1cc(F)ccc1C(C)(C)CC(O)(Cn1ccc(=O)c2ccccc21)C(F)(F)F (stereo not drawn) | potent activity
CC(=O)c1ccc(O)c(C(C)(C)CC(O)(Cn2ccc(=O)c3ccccc32)C(F)(F)F)c1 (stereo not drawn) | potent activity
CC(C)(CC(O)(Cn1ccc(=O)c2ccccc21)C(F)(F)F)c1cc(F)cc2c1OCC2 (stereo not drawn) | potent activity
CC(C)(CC(O)(Cn1cnc(=O)c2ccccc21)C(F)(F)F)c1cc(F)ccc1O (stereo not drawn) | potent activity
CC(C)(CC(O)(Cn1ccc(=O)c2ccc(O)cc21)C(F)(F)F)c1cc(F)ccc1O (stereo not drawn) | potent activity
Cc1cn(CC(O)(CC(C)(C)c2cc(F)ccc2O)C(F)(F)F)c2ccccc2c1=O (stereo not drawn) | potent activity
CC(C)Oc1ccc(F)cc1C(C)(C)CC(O)(Cn1ccc(=O)c2ccccc21)C(F)(F)F (stereo not drawn) | potent activity
COc1ccc(F)cc1C(C)(C)CC(O)(Cn1ccc(=O)c2cc(C)ccc21)C(F)(F)F (stereo not drawn) | potent activity
COc1ccc(F)cc1C(C)(C)CC(O)(Cn1cc(C)c(=O)c2ccccc21)C(F)(F)F (stereo not drawn) | potent activity
Cc1ccc(F)cc1C(C)(C)CC(O)(Cn1ccc(=O)c2ccccc21)C(F)(F)F (stereo not drawn) | potent activity
COC(=O)Oc1ccc(F)cc1C(C)(C)CC(O)(Cn1ccc(=O)c2ccccc21)C(F)(F)F (stereo not drawn) | potent activity
COc1ccc(F)cc1C(C)(C)CC(O)(CN1CC[S+]([O-])c2ccccc21)C(F)(F)F (stereo not drawn) [1,1,1-Trifluoro-4-(5-fluoro-2-methoxyphenyl)-4-methyl-2-(1-oxo-2,3-dihydro-1H-1λ^4-benzo[1,4]thiazin-4-ylmethyl)pentan-2-ol] | potent activity
COc1ccc(F)cc1C(C)(C)CC(O)(CN1CCN(C)c2ccccc21)C(F)(F)F (stereo not drawn) [1,1,1-Trifluoro-4-(5-fluoro-2-methoxyphenyl)-4-methyl-2-(4-methyl-3,4-dihydro-2H-quinoxalin-1-ylmethyl)pentan-2-ol] | potent activity
CCC(C)(CC(O)(Cn1ccc(=O)c2ccccc21)C(F)(F)F)c1ccccc1 (stereo not drawn) [1-(2-Hydroxy-4-methyl-4-phenyl-2-trifluoromethylhexyl)-1H-quinolin-4-one] | potent activity
CC(=NO)c1cccc(C(C)(C)CC(O)(Cn2ccc(=O)c3ccccc32)C(F)(F)F)c1 (stereo not drawn) [1-(2-Hydroxy-4-{3-[1-(hydroxyimino)ethyl]phenyl}4-methyl-2-trifluoromethylpentyl)-1H-quinolin-4-one] | potent activity
CON=C(C)c1cccc(C(C)(C)CC(O)(Cn2ccc(=O)c3ccccc32)C(F)(F)F)c1 (stereo not drawn) [1-(2-Hydroxy-4-{3-[1-(methoxyimino)ethyl]phenyl}4-methyl-2-trifluoromethylpentyl)-1H-quinolin-4-one] | potent activity
CC(C)(CC(O)(Cn1ccc(=O)c2ccccc21)C(F)(F)F)c1cccc(-c2ccccc2)c1 (stereo not drawn) [1-(4-Biphenyl-3-yl-2-hydroxy-4-methyl-2-trifluoromethylpentyl)-H-quinolin-4-one] | potent activity
C/C(=N/OCc1ccccc1)c1cccc(C(C)(C)CC(O)(Cn2ccc(=O)c3ccccc32)C(F)(F)F)c1 (stereo not drawn) [1-(4-{3-[1-(Benzyloxyimino)ethyl]phenyl}-2-hydroxy-4-methyl-2-trifluoromethylpentyl)-1H-quinolin-4-one] | potent activity
Cc1cc(C)c(O)c(C(C)(C)CC(O)(Cn2ccc(=O)c3ccccc32)C(F)(F)F)c1 (stereo not drawn) [1-[2-Hydroxy-4-(2-hydroxy-3,5-dimethylphenyl)-4-methyl-2-trifluoromethylpentyl]-1H-quinolin-4-one] | potent activity
Cc1ccc(O)c(C(C)(C)CC(O)(Cn2ccc(=O)c3ccccc32)C(F)(F)F)c1 (stereo not drawn) [1-[2-Hydroxy-4-(2-hydroxy-5-methylphenyl)-4-methyl-2-trifluoromethylpentyl]-1H-quinolin-4-one] | potent activity
CC(C)(CC(O)(Cn1ccc(=O)c2ccccc21)C(F)(F)F)c1cc(CN2CCOCC2)ccc1O (stereo not drawn) [1-[2-Hydroxy-4-(2-hydroxy-5-morpholin-4-ylmethylphenyl)-4-methyl-2-trifluoromethylpentyl]-1H-quinolin-4-one] | potent activity
